In paper PMC5429698, “Biochemical analysis of leishmanial and human GDP-Mannose Pyrophosphorylases and selection of inhibitors as new leads” (Scientific Reports, 2017):
Values joined by “and” are separate entries in the source; they are usually repeats but may differ in a detail not shown here. Equal values may be shown once. Read-outs that look alike come from different tables or passages of the source.

How the values were obtained:
[1] = tested on: L. donovani intramacrophage amastigotes in infected RAW.264.7 macrophages; test: Antileishmanial evaluation on intramacrophage amastigotes, RAW264.7 host; assay type: cell-based; settings: for IC50: 48 h treatment, read-out: IC50 (µM) ± SD L. donovani infected RAW.264.7 macrophages; for Selectivity index (CC50/IC50) L. donovani RAW264.7 macrophages: CC50 RAW264.7 / IC50 infected RAW264.7
Experimental: (§1) Concerning the evaluation on intramacrophage amastigotes, RAW 264.7 macrophages (from ATCC) and bone marrow derived macrophages (BMDM) were plated in 96-well microplates at a density of 2 × 10^4 cells per well and incubated for 24 h at 37 °C with 5% CO2 for RAW264.7 cells or at 37 °C with 7% CO2 for BMDM. Axenic amastigotes were differenciated as described above, centrifuged at 2,000 g for 10 min, resuspended in DMEM complete medium, and added to each well to reach a 16:1 parasite to macrophage ratio. After 24 h of infection at 37 °C with 5% CO2 for RAW264.7 cells or at 37 °C with 7% CO2 for BMDM, extracellular parasites were removed, and DMEM complete medium (100 µl) containing two fold serial dilutions of the compounds from a maximal concentration of 100 µM was added to each well. After 48 h of treatment, the medium was removed and replaced by DirectPCR Lysis Reagent (100 µl; Euromedex) before 3 freeze-thaw cycles at room temperature, addition of 50 µg/ml proteinase K, and a final incubation at 55 °C overnight to allow cell lysis. 10 µl of each cell extract was then added to 40 µl of DirectPCR Lysis reagent containing Sybr Green I (0.05%; Invitrogen). DNA fluorescence was monitored using Mastercycler® realplex (Eppendorf). The activity of the compounds was expressed as IC50. Miltefosine was used as the reference drug.

[2] = tested on: L. mexicana intramacrophage amastigotes in infected RAW.264.7 macrophages; test: microbe, parasite or virus in culture; assay type: cell-based; settings: for IC50: 48 h treatment, read-out: IC50 (µM) ± SD L. mexicana infected RAW.264.7 macrophages
Experimental: as §1

[3] = tested on: L. mexicana intramacrophage amastigotes in infected BMDM; test: microbe, parasite or virus in culture; assay type: cell-based; settings: for IC50: Leishmania mexicana, BMDM, 48 h, 48 h treatment, read-out: IC50 (µM) ± SD L. mexicana infected BMDM
Experimental: as §1

Cytotoxicity (resazurin) [4] = assay type: cell-based; settings: mouse, RAW264.7 macrophages; 48 h incubation; read-out: Cytotoxicity CC50 (µM) ± SD RAW264.7 macrophages
Experimental: (§2) Cells were plated in 96-well microplates at a density of 2 × 10^4 cells per well. After an incubation of 24 h at 37 °C with 5% CO2 for RAW264.7 cells or at 37 °C with 7% CO2 for BMDM, the medium was removed in each well, and 100 µl of DMEM complete medium containing two fold serial dilutions of the compounds was added to each well. […] Cell viability was then monitored as described above.

[5] = tested on: L. mexicana axenic amastigotes; test: Antileishmanial evaluation on axenic amastigotes (resazurin); assay type: cell-based
Experimental: (§3) The evaluations of activity on axenic and intramacrophage amastigotes were adapted from the protocols previously described. Briefly, for the evaluation on axenic amastigotes, two fold serial dilutions of the compounds from a maximal concentration of 100 µM were performed in 100 µl of complete medium (see above) in 96-well microplates. Axenic amastigotes were then added to each well at a density of 10^6/ml in a 200 µl final volume. After 72 h of treatment at 37 °C for L. donovani or at 32 °C for L. mexicana with 5% CO2, 20 µl of resazurin (450 µM) was added to each well and further incubated in the dark for 24 h at 37 °C for L. donovani or at 32 °C for L. mexicana with 5% CO2. In living cells, resazurin is reduced in resorufin and this conversion is monitored by measuring OD570nm (resorufin) and OD600nm (resazurin; Lab systems Multiskan MS). The activity of the compounds was expressed as IC50. Miltefosine was used as the reference drug.

[6] = tested on: L. donovani axenic amastigotes; test: as above; assay type: cell-based; settings: 72 h treatment, 37 °C, read-out: IC50 (µM) ± SD L. donovani axenic amastigotes
Experimental: as §3

[7] = tested on: L. donovani intramacrophage amastigotes in infected BMDM; test: Antileishmanial evaluation on intramacrophage amastigotes, BMDM host; assay type: cell-based; settings: for Selectivity index (CC50/IC50) L. donovani BMDM: CC50 BMDM / IC50 infected BMDM; for IC50: Leishmania donovani, BMDM, 48 h treatment, read-out: IC50 (µM) ± SD L. donovani infected BMDM
Experimental: as §1

Cytotoxicity (resazurin) [8] = assay type: cell-based, Balb/c mice; settings: Balb/c, mouse, bone marrow derived macrophages (BMDM); 48 h incubation; read-out: Cytotoxicity CC50 (µM) ± SD BMDM
Experimental: as §2

LmGDP-MP = LmGDP-MP (Leishmania mexicana, UniProt E9AW11); test: biochemical; assay type: biochemical
LmGDP-MP, sequence (E9AW11 entry or part of it): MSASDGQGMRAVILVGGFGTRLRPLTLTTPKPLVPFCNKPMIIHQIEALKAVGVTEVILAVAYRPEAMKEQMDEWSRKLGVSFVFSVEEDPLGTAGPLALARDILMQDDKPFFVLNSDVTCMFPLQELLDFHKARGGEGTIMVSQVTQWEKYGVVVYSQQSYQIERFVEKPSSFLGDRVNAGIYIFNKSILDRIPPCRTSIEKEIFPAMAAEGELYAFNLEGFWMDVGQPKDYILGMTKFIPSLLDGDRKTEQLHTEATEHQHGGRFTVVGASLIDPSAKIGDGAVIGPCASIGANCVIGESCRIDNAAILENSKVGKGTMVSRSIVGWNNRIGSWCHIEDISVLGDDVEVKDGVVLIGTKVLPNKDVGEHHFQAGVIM
Experimental: (§4) GDP-MP catalyzes the following reaction: Man‐1‐P+GTP→GDP−Mannose+Pyrophosphate The reaction media were buffered at pH optima and contained optimal concentrations of Man-1-P, GTP, GDP-MP and Mg^2+ determined for each purified GDP-MP (Fig. 2d), supplemented with DTT (1 mM). Inorganic pyrophosphatase, which hydrolyses the inorganic pyrophosphates generated by the GDP-MPs in inorganic phosphates, was added at 0.1 U/ml (Sigma-Aldrich). Inorganic pyrophosphatase was added in excess to the reaction medium in order to minimize the probability that the putative inhibitors of GDP-MPs interfere with this enzyme. The reaction was initiated by the addition of GDP-MP, and was stopped after adding 100 µl of revelation buffer containing malachite green (0.03% w/v), ammonium molybdate (0.2% w/v) and Triton X-100 (0.05% v/v) in HCl (0.7 M) for 5 min at the optimal temperature. The quantity of inorganic phosphate generated, representing GDP-MP activity, was determined by measuring OD650nm (Lab systems Multiskan MS). The molar extinction coefficient ε of the end product detected was determined by measuring OD650nm with a range of inorganic phosphate concentrations diluted in the revelation buffer and was calculated at 27207 M^−1 cm^−1 (Supplementary Fig. S2). The kinetic constants K m, V m and k cat were determined by non linear regression using GraphPad Prism 6.0.
(§5) Enzyme activity was measured as described above in the presence of 100 µM of compounds and the percentage of inhibition was calculated in reference to untreated enzyme. As a control, compounds were evaluated in parallel in the same conditions on inorganic pyrophosphatase alone in order to discard false-positives. […] Furthermore, no effect was observed on the activity of the three purified GDP-MPs with 1% DMSO, corresponding to the maximal solvent concentration used at 100 µM of compound. Compounds presenting a minimum of 50% inhibition on a leishmanial GDP-MP were subsequently selected to determine their type of inhibition and their K i values. Inhibition data were fitted to competitive, non-competitive or uncompetitive models of enzyme inhibition by non linear least squares regression analysis using GraphPad Prism 6.0.

[9] = tested on: leishmanial GDP-MP (LdGDP-MP and/or LmGDP-MP); test: Screen of the 100 compound library at 100 µM on purified leishmanial GDP-MPs; assay type: biochemical, Leishmania; settings: compound at 100 µM
Experimental: as §4, §5

[10] = tested on: inorganic pyrophosphatase; test: Control for false positives on inorganic pyrophosphatase alone; assay type: biochemical; settings: compound at 100 µM, same conditions as the GDP-MP assay
Experimental: as §5

LdGDP-MP = LdGDP-MP (Leishmania donovani, UniProt E9BG32); test: biochemical; settings: Man-1-P 10-100 µM, GTP 100 µM
LdGDP-MP, sequence (E9BG32 entry or part of it): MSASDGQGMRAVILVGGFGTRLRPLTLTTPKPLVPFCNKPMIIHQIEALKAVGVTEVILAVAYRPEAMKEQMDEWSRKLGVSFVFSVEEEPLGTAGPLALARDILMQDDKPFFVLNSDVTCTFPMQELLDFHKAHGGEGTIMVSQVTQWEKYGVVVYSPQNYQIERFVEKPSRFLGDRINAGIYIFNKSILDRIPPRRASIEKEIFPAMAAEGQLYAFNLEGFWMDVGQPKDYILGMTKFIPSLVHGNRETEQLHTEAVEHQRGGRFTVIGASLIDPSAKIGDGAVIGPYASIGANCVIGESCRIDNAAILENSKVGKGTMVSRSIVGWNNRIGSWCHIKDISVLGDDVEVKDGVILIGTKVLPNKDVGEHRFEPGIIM
Experimental: as §4, with “The reaction was initiated by the addition of GDP-MP, and was stopped after adding 100 µl of revelation buffer containing malachite green (0.03% w/v), ammonium molybdate (0.2% w/v) and Triton X-100 (0.05% v/v) in HCl (0.7 M) for 5 min at the optimal temperature.” left out
(§6) Enzyme activity was measured as described above in the presence of 100 µM of compounds and the percentage of inhibition was calculated in reference to untreated enzyme. […]

hGDP-MP = target: T1, hGDP-MP (Homo sapiens, UniProt Q9Y5P6); test: GDP-MP enzymatic assay (malachite green) on purified hGDP-MP; assay type: biochemical; settings: Man-1-P 10-100 µM, GTP 100 µM
T1 construct: made in house; host or cells: E. coli BL21(DE3), co-transformed with chaperone plasmid pG-KJE3
T1 sequence (Q9Y5P6 whole entry): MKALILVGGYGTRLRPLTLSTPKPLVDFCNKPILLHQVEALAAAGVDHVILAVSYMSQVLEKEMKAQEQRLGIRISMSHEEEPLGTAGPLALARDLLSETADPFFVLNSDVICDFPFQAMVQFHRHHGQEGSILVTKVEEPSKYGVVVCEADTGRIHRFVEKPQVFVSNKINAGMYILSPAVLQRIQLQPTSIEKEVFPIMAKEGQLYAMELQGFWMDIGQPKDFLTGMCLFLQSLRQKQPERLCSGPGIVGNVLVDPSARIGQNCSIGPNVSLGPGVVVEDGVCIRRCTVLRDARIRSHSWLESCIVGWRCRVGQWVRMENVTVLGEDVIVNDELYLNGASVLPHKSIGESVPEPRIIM
Experimental: as §4, with “The reaction was initiated by the addition of GDP-MP, and was stopped after adding 100 µl of revelation buffer containing malachite green (0.03% w/v), ammonium molybdate (0.2% w/v) and Triton X-100 (0.05% v/v) in HCl (0.7 M) for 5 min at the optimal temperature.” left out
as §6

[11] = tested on: L. major intramacrophage amastigotes; set-up: method as in PMID 20160053; settings: cited from earlier work
L. major GDP-MP = tested on: L. major GDP-MP; set-up: method as in PMID 20160053; settings: high throughput screening; cited from earlier work
[12] = Leishmania donovani, RAW264.7, 48 h
[13] = Leishmania mexicana, RAW264.7, 48 h
[14] = CC50 RAW264.7 / IC50 infected RAW264.7
[15] = Leishmania mexicana, 72 h, 72 h treatment, 32 °C, read-out: IC50 (µM) ± SD L. mexicana axenic amastigotes

SMILES | IC50 [1, 12] | IC50 [2, 13] | IC50 [3] | CC50 at 48 h (Cytotoxicity (resazurin) [4]) | IC50 ([6]; Leishmania donovani, 72 h) | Selectivity index (CC50/IC50) L. donovani BMDM [7] | IC50 [7] | CC50 at 48 h (Cytotoxicity (resazurin) [8]) | Selectivity index (CC50/IC50) L. mexicana RAW264.7 macrophages [2, 14] | Selectivity index (CC50/IC50) L. mexicana BMDM ([3]; CC50 BMDM / IC50 infected BMDM) | IC50 [5, 15] | Ki (LmGDP-MP) | enzyme inhibition on a leishmanial GDP-MP [9] | inhibition of inorganic pyrophosphatase [10] | Selectivity index (CC50/IC50) L. donovani RAW264.7 macrophages [1] | IC50 [2] | further results
CCCCCCCCCCCCCCCCOP(=O)([O-])OCC[N+](C)(C)C [Miltefosine, reference compound] | 1.83 ± 0.22 µM | 52.6 ± 4.98 µM | 51.4 ± 5.34 µM | > 25 µM | 2.08 ± 0.24 µM | >30.1 | 0.83 ± 0.12 µM | > 25 µM | – | – | – | – | – | – | – | – | Selectivity index (CC50/IC50) L. mexicana RAW264.7 macrophages [2]: >0.5; Selectivity index (CC50/IC50) L. mexicana BMDM [3]: >0.5; IC50 ([5]; Leishmania mexicana, 72 h, read-out: IC50 (µM) ± SD L. mexicana axenic amastigotes, 72 h treatment, 32 °C): 23.7 ± 2.81 µM
O=C(NCc1ccccc1)c1ccc2nc(-c3ccccc3)c(-c3ccccc3)nc2c1 [compound 46] | > 100 µM | 11.7 ± 1.13 µM | 15.7 ± 3.48 µM | > 100 µM | > 100 µM | 1.0 | 12.5 ± 0.93 µM | 13.1 ± 1.67 µM | >8.5 | 0.8 | 7.69 ± 0.56 µM | 25.6 ± 3.46 µM | above 50% | < 5% | – | – | –
Nc1nc2c(ncn2C2OC(Cn3cc(-c4ccc(-c5ccccc5)cc4)nn3)C(O)C2O)c(=O)[nH]1 (stereo not drawn) [compound 83] | 51.9 ± 7.49 µM | 45.4 ± 6.21 µM | 25.9 ± 5.37 µM | > 100 µM | > 100 µM | 0.9 | 27.1 ± 2.04 µM | 23.8 ± 1.98 µM | >2.2 | 0.9 | 30.6 ± 3.29 µM | 25.4 ± 4.23 µM | above 50% | < 5% | >1.9 | – | –
Clc1ccc2nc(COCCn3cc(-c4ccc(-c5ccccc5)cc4)nn3)ccc2c1 [compound 92] | 41.6 ± 14 µM | < 10 µM | 79.3 ± 9.76 µM | > 100 µM | > 100 µM | 0.9 | 82.5 ± 7.61 µM | 77.5 ± 5.34 µM | >12.1 | 1.0 | 43.1 ± 3.42 µM | 16 ± 3.51 µM | above 50% | < 5% | >2.4 | 8.25 ± 1.07 µM | –
CC(C)(C)c1ccc(CN2CCN(c3ccnc4cc(Cl)ccc34)CC2)cc1 [compound 100, reference compound] | 20 to 27.5 µM | 20 to 27.5 µM | 12.1 ± 1.27 µM | 62.1 ± 7.39 µM | 30 to 50 µM | 4.2 | 12.2 ± 4.74 µM | 51.4 ± 3.45 µM | 2.3 | 4.3 | 30 to 50 µM | – | above 50% | < 5% | 3.2 | 27.5 ± 2.23 µM | IC50 [1]: 19.5 ± 4.53 µM; Ki (LdGDP-MP): 61.8 ± 16.3 µM; Ki (hGDP-MP): 19.7 µM and ~20 µM; IC50 ([5]; 72 h treatment, 32 °C, read-out: IC50 (µM) ± SD L. mexicana axenic amastigotes): 49.25 ± 0.26 µM; IC50 [6]: 30.7 ± 6.62 µM; IC50 [11]: 21.9 µM; IC50 (L. major GDP-MP): 0.58 µM
